One experiment relates to Vibrio fischen. To be noted: cited from earlier work.
For experiment [1], the system named is bacteria phosphotransferase system (PTS) of E. coli mutant 1219bgl+. Kind of experiment: microbe, parasite or virus in culture. Type of experiment: cell-based. To be noted: for IC50: pH 6.5, read-out: EC50. From the text:
Since the phosphotransferase system for the bacterial cell is an essential transport system for the reception of extracellular carbohydrates, a possible inhibition or adverse effect of the participating enzymes should be noticed to cause a reduction in the carbohydrate transport, that is the PTS constitutes a potential possibility for the detection of toxic substances in microorganisms. […] Said analog is of such a nature that it, in phosphorylated form after the cell transport, can be hydrolyzed by an enzyme in the bacterial cell under the release of a substance susceptible to analysis. If, for instance, 2-nitrophenyl-β-D-glucoside is used as substrate analog, this will be channeled by the PTS under phosphorylation into a bacterial cell, where the ONP-Glc-6-P is broken down hydrolytically by the inducible 6-phospho-β-glucosidase B to Glc-6-P and 2-nitrophenyl. The released 2-nitrophenyl can then, by means of photometry, be quantitatively measured as phenolate-anion after a defined time span. Additionally, with E. coli mutant 1219bgl+ a bacterium is present that is characterized by increased β-glycoside activity, yet is not transformed through genetic engineering nor is pathogenic, which is an important prerequisite for harmless work with bacteria.
The test occurs with a total reaction volume of 500 μl in Eppendorf cups, the O.D.578 of the bacteria suspension amounting to 3.0.
The E. coli cultures of the mutant 1219 bgl+, preserved at -20° C., are first thawed to be reactivated during 10 min. at room temperature. They are then suspended in 250 μl of 50 mM buffer and together with the appropriate test solution and distilled water brought to a volume of 480 μl . This suspension is then pre-incubated over a time span of 10-15 minutes at 37° C. After that, the reaction is started by adding 20 μl of ONP-glucose (50 mM) (equivalent to a final concentration in the reaction batch of 2 mM). The reaction mixture is incubated over a time span of 5 minutes at 37° C. After the end of this reaction time the reaction is terminated by adding 1 ml of Na2 CO3 (0.5M). After a 2 minute centrifugation at 17,000×g the substrate transformations of the tested bacteria suspensions are photometrically determined at 405 nm.
The evaluation of the PTS test with ONP-glycosides is done by means of the toxicological characteristic quantity of the "efficient concentration", (the EC value). It is hereinunder understood with such a concentration of added toxic substance that a measurable parameter of an organism will be inhibited to a certain extent within a freely defined time span. The percentage of adverse effect of the parameter to be measured is indicated by the attached index.
The conversion of the registered percentage inhibitory values into EC values is carried out with the help of the gamma method (Johnson, F. H., Eyring, H. and Stover, B. J., 1974; The theory of rate processes in biology and medicine, John Wiley & Sons, New York: 1-385). With the aid of the O.D.405, registered in the PTS inhibition test, the quotient is formed from the ONP-glycoside cleavage output and the remaining ONP-glycoside cleavage. [formula] O.D.405 : Substrate transformation without toxic substance solution. D O.D.405 : Output of the substrate transformation after incubation with the toxic substance solution.
The gamma values hereby obtained are used against the employed concentration of toxic substance, in a double logarithmic representation. […]

The subject of experiment [2] is E. coli mutant 1219bgl+ PTS. Kind of experiment: ONP-glycoside cleavage in dependency on substrate concentration (Lineweaver-Burk). To be noted: Lineweaver-Burk process. The class given is cell-based. On the procedure: Looking more closely into the ONP-glycoside cleavage in dependency on substrate concentration, we find the presence of saturation kinetics without substrate inhibition (FIG. 4). […] Since, when increasing the substrate concentration, there was no further velocity increase to be registered, the dosage of the substrate to be used, according to the invention, takes place in accord with a cost and efficiency weighting at 2 mM. When performing the PTS inhibition test, in accordance with the invention, it also turned out that the sensitivity of the test is clearly dependent on the kind of buffer used. It was particularly conspicuous that phosphate buffer has a clearly stimulating effect on the ONP-glycoside hydrolysis, whereas, on the other hand, when performing the inhibition test with heavy metals as toxic substances, the strongest inhibitory effects were to be registered when using the HEPES buffer. It should however be taken into account that a phosphate buffer in the presence of heavy metal salts is less suitable due to solubility problems that then might occur. Therefore when testing heavy metals, the HEPES buffer should preferably be chosen.

Where [3] appears, read: reaction time 10 min, Beckmann, 1980.
[4] abbreviates: heavy metal ions as chlorides, HEPES buffer pH 6.5, 37° C., 5 min reaction, 5 min.
Where [5] appears, read: heavy metal ions as chlorides, HEPES buffer pH 6.5, 37° C., 5 min reaction, read-out: EC50.
The mark [6] stands for this setting: Escherichia coli, pH 6.5, read-out: EC10, organic solvents, 50 mM phosphate buffer pH 6.5.
[7] abbreviates: organic solvents, 50 mM phosphate buffer pH 6.5.

Converted amounts (≈) assume the structure as drawn. “And” between values parts separate entries of the source, which are not always exact repeats. Identical values can stand only once. Like-named read-outs stand apart in the source and are kept apart here.

In the case of `[Cd+2]` [Cd^2+], in the experiment with Vibrio fischen (setting [3]), the “Bioluminescent Inhibition Test EC50 (ppm)” value is 131 ppm. Moreover, the results for the EC50 in experiment [1] (setting [4]) and in experiment [1] (setting [5]) were 19 ppm and 169 µM, respectively.
For the compound `ClC(Cl)Cl` [Chloroform, chloroform], the “Bioluminescent Inhibition Test EC50 (ppm)” value in the experiment on Vibrio fischen (vibrio fischeri luminescence) was 1,168. The IC50 in experiment [1] (Escherichia coli, 5 min) worked out at 1900 µg/mL (≈ 15.9 mM). In addition, the EC50 in experiment [1] (Escherichia coli, pH 6.5) came out at 15900 µM. For the same compound, in experiment [1] (setting [6]), the IC10 is 720 µg/mL and 6 µM.
`[Cr+3]` [Cr^3+] returned an EC50 in experiment [1] (setting [4]) of 16 ppm.
For the compound `[Cu+2]` [Cu^2+], the “Bioluminescent Inhibition Test EC50 (ppm)” value with Vibrio fischen (setting [3]) is reported as 16 ppm. In addition, the EC50 came out at 11 ppm in experiment [1] (setting [4]) and 173 µM in experiment [1] (setting [5]).
`ClCCCl` [Dichloroethane, dichloroethane]: the “inhibition of ONP-glucose transformation” value in experiment [1] (at approx. 3,500 ppm (approximative 35 μM as printed), phosphate buffer pH 6.5, no extrapolation to gamma values possible) is listed as “about 30%”.
By EC10 is commonly meant the concentration needed for an effect of 10%. Low values mean an effect from little substance, high ones a need for much substance. Consider `C1COCCO1` [Dioxan, dioxan], for which the IC50 in experiment [1] (Escherichia coli, 5 min) was found to be 30000 µg/mL (≈ 340 mM). Further, the IC10 in experiment [1] (setting [6]) was 10000 µg/mL and 114 µM. For the same compound, the 10% effect concentration (EC10) entry in experiment [1] (setting [7]) is “approx. 10,000 ppm”.
Take `CCO` [Ethanol, ethanol]: in the experiment with Vibrio fischen (vibrio fischeri luminescence), the “Bioluminescent Inhibition Test EC50 (ppm)” value is on record as 31,000. The IC50 in experiment [1] (Escherichia coli, 5 min) stood at 33000 µg/mL (≈ 716 mM). The IC10 in experiment [1] (setting [6]) is 10500 µg/mL and 288 µM. In addition, the EC10 entry in experiment [1] (setting [7]) is given as “approx. 10,500 ppm”.
With `[Hg+2]` [Hg^2+], in the experiment on Vibrio fischen (reaction time 5 min, Bulich et al., 1981), the “Bioluminescent Inhibition Test EC50 (ppm)” value is 0.065 ppm. For the same compound, in experiment [1] (HEPES buffer pH 6.5), the maximal inhibition entry is listed as “about 70%”. Moreover, the EC50 in experiment [1] (setting [4]) came out at 2.1 ppm; in experiment [1] (setting [5]), 10.3 µM.
With `[Ni+2]` [Ni^2+], the maximal inhibition result in experiment [1] (HEPES buffer pH 6.5) is on record as “about 70%”. The EC50 was 4.5 ppm in experiment [1] (setting [4]) and 76.6 µM in experiment [1] (setting [5]).
What is called Km is the substrate concentration at which the rate is half of its maximum. With `O=[N+]([O-])c1ccccc1O[C@@H]1O[C@H](CO)[C@@H](O)[C@H](O)[C@H]1O` [ONP-glycoside, 2-nitrophenyl-β-D-glucoside], in experiment [2], the Michaelis constant (Km) amounted to 2000 µM and the maximal reaction velocity came out at 42 nmol/min/mL.
Consider `[Pb+2]` [Pb^2+], for which, in the experiment on Vibrio fischen (reaction time 30 min, Beckmann, 1981), the “Bioluminescent Inhibition Test EC50 (ppm)” value is 0.4 ppm. Moreover, the EC50 in experiment [1] (setting [4]) amounted to 67 ppm; in experiment [1] (setting [5]), 322 µM. This compound returned an EC10 in experiment [1] (heavy metal ions as chlorides, HEPES buffer pH 6.5, 37° C., 5 min reaction, listed as Pb^+) of 120 µM.
Turning to `Oc1ccccc1` [Phenol, phenol], the “Bioluminescent Inhibition Test EC50 (ppm)” value in the experiment with Vibrio fischen (vibrio fischeri luminescence) is listed as 25. Moreover, in experiment [1] (Escherichia coli, 5 min), the IC50 worked out at 1400 µg/mL (≈ 14.9 mM). In experiment [1] (Escherichia coli, pH 6.5), this compound gave an EC50 of 14900 µM. Further, the IC10 in experiment [1] (setting [6]) was 350 µg/mL and 3.7 µM.
As for `CCCCCCCCCCCCOS(=O)(=O)O` [SDS], in experiment [1] (Escherichia coli, 5 min), the IC50 was 13 µg/mL (≈ 0.0488 mM). Besides, the EC50 in experiment [1] (Escherichia coli, pH 6.5) was 45.1 µM. The IC10 in experiment [1] (Escherichia coli, pH 6.5, read-out: EC10, detergents, 50 mM HEPES buffer pH 6.5) is 5.5 µg/mL and ~19 µM.
Take `Cc1ccccc1` [Toluene, toluene]: the IC50 in experiment [1] (Escherichia coli, 5 min) amounted to 35 µg/mL (≈ 0.38 mM). Besides, in experiment [1] (Escherichia coli, pH 6.5), the EC50 was 380 µM.
`[Zn+2]` [Zn^2+]: in the experiment on Vibrio fischen (setting [3]), the “Bioluminescent Inhibition Test EC50 (ppm)” value was 25.4 ppm. Besides, the figures for the EC50 in experiment [1] (setting [4]) and in experiment [1] (setting [5]) were 8 ppm and 122 µM, respectively.
Regarding Triton X-100, the EC50 in experiment [1] (detergents, 50 mM HEPES buffer pH 6.5, 5 min) was 180 ppm.
